Laboratory results reported in publication PMC9071858, “Comparative Pharmacokinetics of Seven Major Compounds in Normal and Atherosclerosis Mice after Oral Administration of Simiao Yong'an Decoction” (Evidence-based Complementary and Alternative Medicine : eCAM, 2022).

Experiments:
[1] = Stability of analytes in QC plasma samples; type: in vitro ADME, mouse; details: n = 5
Protocol: All solutions were stored at 4°C.
Stability was evaluated as five replicate QC samples at two concentration levels (see Table 5).

[2] = Pharmacokinetic study in atherosclerosis (AS) model ApoE−/− mice after oral administration of SMYAD; type: in vivo, mouse; details: AS mice, plasma, SMYAD intragastric 35 g/kg/d for seven days, mean ± SD, n = 5; for AUC(0-t) / AUC(0-inf) / Cmax / half-life / Tmax: male, ApoE−/− on a C57BL/6 background, mouse, po, 35 g/kg/day; for AUC(0-t): read-out: AUC0–t; for AUC(0-inf): read-out: AUC0–∞; for Cmax: read-out: C max; for half-life: read-out: t 1/2 (converted); for Tmax: read-out: t max
Protocol: (§1) Male C57BL/6J mice and ApoE^−/− mice on a C57BL/6 background (7 weeks old, 18–22 g) were purchased from Beijing Vital River Laboratory Animal Technology Co., Ltd. (Beijing, China, Certificate No.: SCXK (Jing) 2016-0006). All the mice were kept in an SPF animal house (Dongzhimen Hospital Affiliated to Beijing University of Chinese Medicine, Certificate No.: SYXK (Jing) 2015-0001) with food and water freely available, 12 h light/dark, and environmental conditions of 22°C–24°C, 50% relative humidity. All protocols of animal experiments were performed in accordance with the National Guidelines for Laboratory Animal Welfare and were approved by the Animal Ethics Committee of Beijing University of Chinese Medicine (NO. BUCM-4-2015071701-3001). High-fat feeding (containing 15% fat and 0.25% cholesterol) was provided by Beijing HFK bioscience CO., LTD. (Beijing, China, Certificate No.: SCXK (Jing) 2014-0018).
The AS model was established by a high-fat diet and perivascular carotid collar placement (PCCP) surgery in the ApoE^−/− mice. After a 7-day adaptive feeding, the mice were given a high-fat diet for 2 weeks; before anesthesia, all ApoE^−/− mice were fasted for 12 hours. During the surgery, the right common carotid artery was exposed, and a silicone cannula (length: 2.5 mm, inner diameter: 0.3 mm) was fixed around the carotid artery (external diameter: about 0.5 mm). Penicillin was injected intraperitoneally for 3 days after surgery to prevent infection. High-fat diet continued for 8 weeks after surgery to establish AS model. Biochemical assays and hematoxylin and eosin (HE) staining were used to evaluate whether AS model was successfully established.
(§2) After successful induction of AS model, SMYAD was administered to NC and AS mice by intragastric gavage at the crude drug dose of 35 g/kg/d for seven days. Blood samples were collected from each mouse in heparinized tubes via the postorbital venous plexus veins at 0, 0.25, 0.5, 1, 2, 4, 6, 8, 10, 12, 18, and 24 h after seven days of drug administration. Then blood samples were immediately centrifuged at 3500 rpm at 4°C for 10 min and the plasma was stored at −80°C until use.
(§3) Each plasma sample (100 μL) was mixed with a threefold volume of methanol and 25 μL IS in a 1.5 mL EP tube. Then the mixture was vortexed for 100 seconds and centrifuged at 12,000 rpm for 10 min at 4°C. The supernatant was transferred to another EP tube and evaporated to dryness under a nitrogen vacuum. The residue was reconstituted with 100 μL of 50% methanol and centrifuged at 15,000 rpm for 15 min. Then the supernatant was transferred to sample vials for the LC-MS analysis.
(§4) A Vanquish UHPLC™ system (Thermo Fisher Scientific Inc., USA) was used for the analysis. Samples were separated on an Atlantis T3 column (4.6 mm × 150 mm, 3 μm; Waters, USA). The column temperature was 40°C. The mobile phase, at 0.4 mL/min, consisted of water containing 0.1% formic acid (v/v, A) and methanol (B). The quantitative analysis gradient program was as follows: 0-1 min, 0 B; 1–6 min, 0–100% B; 6–12 min, 100% B; 12–12.1 min, 100%-0 B; 12.1–15 min, 0 B. The injection volume was 5 μL.
The mass spectrometer Q Exactive HF-X (Thermo Fisher Scientific Inc., USA) system was connected to the UHPLC system via heated electrospray ionization (HESI) and controlled by Xcalibur 4.2 software (Thermo Fisher) that was used for data collection and analysis. The mass spectrometer was operated in a negative ionization mode. The MS parameters were set as follows: probe heater temperature, 350°C; capillary temperature: 320°C; sheath gas (N2) flow rate: 30 arbs; auxiliary gas (N2) flow rate: 10 arbs; spray voltage: 3.2 kV (negative); S-Lens RF level: 55 V; scan mode: full MS (resolution 12000); scan range: m/z 150–1500. The most abundant ions in the spectra were selected for sensitive quantitation ([M-H]^−of chlorogenic acid, angoroside C, liquiritin, isoliquiritigenin, and IS, [M + COOH]^− of harpagide, swertiamarin, and sweroside). […]

[3] = Pharmacokinetic study in normal control (NC) mice after oral administration of SMYAD; type: in vivo, mouse; details: NC mice, plasma, SMYAD intragastric 35 g/kg/d for seven days, mean ± SD, n = 5; for AUC(0-t) / AUC(0-inf) / Cmax / half-life / Tmax: male, C57BL/6J, mouse, po, 35 g/kg/day; for AUC(0-t): read-out: AUC0–t; for AUC(0-inf): read-out: AUC0–∞; for Cmax: read-out: C max; for half-life: read-out: t 1/2 (converted); for Tmax: read-out: t max
Protocol: as §1, §2, §3, §4
The mass spectrometer Q Exactive HF-X (Thermo Fisher Scientific Inc., USA) system was connected to the UHPLC system via heated electrospray ionization (HESI) and controlled by Xcalibur 4.2 software (Thermo Fisher) that was used for data collection and analysis. The mass spectrometer was operated in a negative ionization mode. The MS parameters were set as follows: probe heater temperature, 350°C; capillary temperature: 320°C; sheath gas (N2) flow rate: 30 arbs; auxiliary gas (N2) flow rate: 10 arbs; spray voltage: 3.2 kV (negative); S-Lens RF level: 55 V; scan mode: full MS (resolution 12000); scan range: m/z 150–1500. The most abundant ions in the spectra were selected for sensitive quantitation ([M-H]^−of chlorogenic acid, angoroside C, liquiritin, isoliquiritigenin, and IS, [M + COOH]^− of harpagide, swertiamarin, and sweroside).
The pharmacokinetic parameters, including maximum plasma concentration (Cmax), time corresponding to Cmax (Tmax), terminal elimination half-life (T1/2), area under plasma concentration-time curve (AUC0–t) and area under the plasma concentration-time curve from 0 to infinity time (AUC0–∞), apparent volume of distribution (Vz/F) and clearance (CLz/F), were calculated using the noncompartment model in DAS 2.0 software package (Shanghai, China). GraphPad prism 6.02 (GraphPad Software, USA) was used in the statistical analysis. All values are expressed as mean ± standard error. For the pharmacokinetic parameter values of the NC and AS groups, Student's t-test was employed for data comparisons. P values <0.05 were considered statistically significant.

[4] = high QC level (600 harpagide, 800 chlorogenic acid, 4800 swertiamarin, 1000 sweroside, 200 others ng/ml)
[5] = low QC level ([…] harpagide, 51.2 chlorogenic acid, 307.2 swertiamarin, 64 sweroside, 12.8 others ng/ml)

Compound	Freeze-thaw stability 3 freeze-thaw cycles Accuracy RE [1, 4] [%]	Freeze-thaw stability 3 freeze-thaw cycles Calc. conc. [1, 4] [ng/mL]	Long-term stability −20°C for 30 d Accuracy RE [1, 4] [%]	Long-term stability −20°C for 30 d Calc. conc. [1, 4] [ng/mL]	Postpreparative stability 24 h in the autosampler (4°C) Accuracy RE [1, 4] [%]	Postpreparative stability 24 h in the autosampler (4°C) Calc. conc. [1, 4] [ng/mL]	Short-term stability 24 h in room temperature (20°C) Accuracy RE [1, 4] [%]	Short-term stability 24 h in room temperature (20°C) Calc. conc. [1, 4] [ng/mL]	Freeze-thaw stability 3 freeze-thaw cycles Accuracy RE [1, 5] [%]	Freeze-thaw stability 3 freeze-thaw cycles Calc. conc. [1, 5] [ng/mL]	Long-term stability −20°C for 30 d Accuracy RE [1, 5] [%]	Long-term stability −20°C for 30 d Calc. conc. [1, 5] [ng/mL]	Postpreparative stability 24 h in the autosampler (4°C) Accuracy RE [1, 5] [%]	Postpreparative stability 24 h in the autosampler (4°C) Calc. conc. [1, 5] [ng/mL]	Short-term stability 24 h in room temperature (20°C) Accuracy RE [1, 5] [%]	Short-term stability 24 h in room temperature (20°C) Calc. conc. [1, 5] [ng/mL]	CLz/F [2] [µL/min/mg]	Vz/F [2] [L/mg]	AUC(0-t) [2] [ng·h/mL]	AUC(0-inf) [2] [ng·h/mL]	further results
COc1ccc(CCO[C@@H]2O[C@H](CO[C@@H]3OC[C@H](O)[C@H](O)[C@H]3O)[C@@H](OC(=O)/C=C/c3ccc(O)c(OC)c3)[C@H](O[C@@H]3O[C@@H](C)[C@H](O)[C@@H](O)[C@H]3O)[C@H]2O)cc1O [Angoroside C, angoroside C]	−1.74	196.52 ± 13.15	−10.51	178.97 ± 6.04	−7.27	185.46 ± 9.39	1.92	203.84 ± 4.39	5.68	13.53 ± 0.98	1.73	13.02 ± 1.17	1.70	13.02 ± 1.05	4.09	13.32 ± 1.09	313200 ± 39800	126.00 ± 102.72	1840 ± 298	1890 ± 226	Cmax [2]: 491 ± 239 ng/mL; half-life [2]: 7.33 ± 4.68 h; Tmax [2]: 2.05 ± 1.19 h; CLz/F [3]: 495800 ± 401700 µL/min/mg; Vz/F [3]: 148.22 ± 76.23 L/mg; AUC(0-t) [3]: 1730 ± 883 ng·h/mL; AUC(0-inf) [3]: 1870 ± 1050 ng·h/mL; Cmax [3]: 289 ± 124 ng/mL; half-life [3]: 7.4 ± 4.76 h; Tmax [3]: 0.85 ± 0.62 h
C=C[C@H]1[C@H](O[C@@H]2O[C@H](CO)[C@@H](O)[C@H](O)[C@H]2O)OC=C2C(=O)OCC[C@]21O [Swertiamarin, swertiamarin]	7.37	5153.93 ± 132.15	0.75	4835.93 ± 153.29	3.51	4968.64 ± 208.19	9.88	5274.04 ± 147.92	−5.86	289.21 ± 13.27	1.41	311.53 ± 14.38	−4.67	292.85 ± 19.45	−8.88	279.92 ± 15.61	95000 ± 32200	55.16 ± 45.04	5540 ± 2010	7240 ± 3390	Cmax [2]: 1340 ± 603 ng/mL; half-life [2]: 5.74 ± 1.9 h; Tmax [2]: 0.9 ± 0.64 h; CLz/F [3]: 97000 ± 44000 µL/min/mg; Vz/F [3]: 20.82 ± 11.26 L/mg; AUC(0-t) [3]: 5350 ± 1180 ng·h/mL; AUC(0-inf) [3]: 5400 ± 1240 ng·h/mL; Cmax [3]: 1430 ± 636 ng/mL; half-life [3]: 4.43 ± 2.06 h; Tmax [3]: 5 ± 4.97 h
